Reference: patent US20050233313A1, “Methods and reagents for identifying inhibitors of viral protease activity” (priority 2002, published 2005)

tested on: β-galactosidase substrate with HIV protease cleavage site; assay: cleavage of a β-galactosidase substrate by processed PR expressed from pMono in E. coli, Western blot; type: cell-based; conditions: single alanine substitutions in processed monomeric PR; full-length β-galactosidase cleavage, average of two or more inductions
Description: Plasmid pMono expresses wild-type or mutated monomeric protease from the tac promoter (Amann et al. (1983) Gene 25:167-178) in Escherichia coli and was derived from plasmid P1+IQ (Baum et al. (1990) Proc. Natl. Acad. Sci. USA 87:10023-10027). Protease sequences in P1+1Q were replaced by a linker of 5′ XhoI-XbaI-SalI-PstI 3′ to produce p1CVx. Wild-type or mutated protease sequences were obtained from pET-PR by PCR with primers 5′Xho (AATATA-CTCGAG-[…], SEQ ID NO: 1) and 3′Xba (ATAAAT-TCTAGA-[…], SEQ ID NO: 2) and were inserted into p1CVx to produce pMono. The phagemid pET-PR contains the 99-residue coding domain of the monomeric protease (HXB2 isolate [Ratner et al. (1987) AIDS Res. Hum. Retrovir. 3:57-69]) inserted into the NdeI-BamHI sites of pET24a (Novagen). The Kunkel method using single-stranded templates of pET-PR substituted with uracil was employed for site-directed mutagenesis (Bebenek and Kunkel (1989) Nucleic Acids Res. 17:5408, Kunkel et al. (1991) Methods Enzymol204:125-139). Mutations were confirmed by DNA sequencing prior to transfer of the protease sequences into p1CVx.
Uninduced mid-log-phase (optical density at 600 nm=0.5) cultures of lac-E. coli strain MC1061 carrying pMono were grown in yeast-tryptone medium to produce samples for Western blot analysis. Cells were pelleted, resuspended in 400 μl of sodium dodecyl sulfate (SDS)-polyacrylamide gel electrophoresis (PAGE) sample buffer (Pettit et al. (1991) J. Biol. Chem. 266:14539-14547) (optical density at 600 nm=˜0.5), and heated to 95° C. for 4 min. SDS-PAGE was performed on Tris-glycine gels (7.5% polyacrylamide) (Laemmli (1970) Nature […]). Separated proteins were bound to nitrocellulose by electrotransfer, blocked for 1 h with 3% bovine serum albumin in Tris-buffered saline-0.1% Tween 20, and probed with anti-β-galactosidase monoclonal antibody (Boehringer) at a 1:5,000 dilution. Following multiple washes in Tris-buffered saline-0.1% Tween 20, β-galactosidase was detected with the ECL Plus system followed by autoradiography according to the instructions of the manufacturer (Amersham Pharmacia). The extent of β-galactosidase cleavage was determined by densitometric measurement on a Molecular Dynamics Storm model 800 Phosphorlmager. For scanning, the Phosphorlmager was set in the blue fluorescence and chemifluorescence mode with a photomultiplier tube voltage of 700 V. The final value for percent cleavage of the β-galactosidase substrate was determined by taking the average of two or more independent inductions.
For these studies, we modified an E. coli expression system developed as described in Baum et al. (1990) Proc. Natl. Acad. Sci. USA 87:10023-10027. The vector (pMono) expresses HIV protease and the β-galactosidase gene. A cleavage cassette consisting of a decapeptide corresponding to an HIV protease cleavage site was inserted into the β-galactosidase open reading frame. In this system, enzyme activity may be assessed via Western blotting as the percent cleavage of full-length β-galactosidase.

In order of rising “% Cleavage” value:
1. D25A: processed HIV-1 protease with replacement of the catalytic aspartate, negative control  0%
2. F99A: processed HIV-1 protease with single alanine substitution of dimer interface residue Phe 99  0%
3. L97A: processed HIV-1 protease with single alanine substitution of dimer interface residue Leu 97  0%
4. T96A: processed HIV-1 protease with single alanine substitution of dimer interface residue Thr 96  14%
5. N98A: processed HIV-1 protease with single alanine substitution of dimer interface residue Asn 98  68%
6. P1A: processed HIV-1 protease with single alanine substitution of dimer interface residue Pro 1  92%
7. Q2A: processed HIV-1 protease with single alanine substitution of dimer interface residue Gln 2  96%
8. T4A: processed HIV-1 protease with single alanine substitution of dimer interface residue Thr 4  96%
9. Wild type: wild-type mature 99-residue monomeric HIV-1 protease (HXB2) expressed from pMono  96%
